Data from patent publication US10981864B2, “Crystalline modifications of N-(4,5-bismethanesulfonyl-2-methylbenzoyl)guanidine hydrochloride and N-(4,5-bismethanesulfonyl-2-methylbenzoyl)guanidine salts” (MERCK PATENT GMBH, priority 2016, dated 2021).
Where “and” joins values, the source holds several entries; their conditions need not be identical. Equal entries are not always repeated. Entries after “also recorded” stand apart in the source; their conditions may differ. Structures can show the parent of a compound that is named as a salt.

Columns and labels:
Type in all cases: physicochemical
[1] = Thermal behaviour (DSC/TGA), thermal stability; conditions: for Thermal stability (mp/dec): DSC/TGA 5 K/min
Protocol: As used herein, unless stated otherwise, the DSC measurements are carried out using a Mettler-Toledo DSC 821 with a heating rate of 5 K/min, using nitrogen purge gas at 50 mL/min.
As used herein, unless stated otherwise, the TGA measurements are carried out using a Mettler-Toledo TGA 851 with a heating rate of 5 K/min, using nitrogen purge gas at 50 mL/min.

[2] = Mini-dissolution in FeSSIF medium (pH 5.0), dissolved quantity by HPLC; conditions: for Dissolution levels in FeSSIF pH 5.0: FeSSIF pH 5.0, 37° C.; for Dissolution behavior compared to prior-art form HCl-H1: biorelevant media, Fed-state conditions (FeSSIF, pH 5.0)
Protocol: Approximately 10-12 mg of N-(4,5-bis-methanesulfonyl-2-methyl-benzoyl)guanidine form HCl-H1 (HCl salt hydrate form, prior-art), HCl salt anhydrous forms (forms HCl-A1, HCl-A2, HCl-A3), and novel salt forms [phosphate salt (form Phosphate-NF1), maleate salt (form Maleate-NF2), oxalate salt (form Oxalate-NF1), citrate salt (form citrate-NF1), sulfate salt (form Sulfate-NF3), succinate salt (form Succinate-NF1), malonate salt (form Malonate-NF1), besylate salt (form Besylate-NF1), p-tosylate salt (form Tosylate-NF1), malate salt (form Malate-NF1), fumarate salt (form Fumarate-NF1), tartrate salt (form Tartrate-NF1)] are weighed into 4 mL glass vials, and dispersed in 4 mL FeSSIF medium (pH 5.0, Acetate buffer capacity increased by factor 4 to ensure stable pH conditions over course of dissolution experiments).
All dispersions are agitated at 37° C. for up to 2 hours. At defined time intervals (5 min, 15 min, 60 min, 120 min), 0.4 mL sample aliquots of homogeneous dispersions are withdrawn by a syringe, and filtrated via syringe filter adapters (PTFE, 0.2 μm). Clear filtrates are diluted (1:20) with respective Acetate blank buffer, and diluted samples analyzed by HPLC for dissolved quantities of N-(4,5-bis-methanesulfonyl-2-methyl-benzoyl)-guanidine.

[3] = Water Vapour Sorption isotherm (DVS), hygroscopicity acc. to Ph. Eur.; conditions: for Water uptake levels (Water Vapour Sorption): 25° C.; for Tendency to undergo hydrate formation: upon exposure to elevated RH levels
Protocol: As used herein, unless stated otherwise, Water Vapour Sorption isotherm measurements are carried out on a DVS-1 or a DVS-Intrinsic system from SMS.
A second endothermic event occurs at >180° C., which is due to melting of the dehydrated form. This is followed by immediate re-crystallisation (exothermic event), and subsequent melting of the re-crystallized phase at >240° C. […] DSC scan of form HCl-H1 was acquired on a Mettler-Toledo DSC 821 with a heating rate of 5 K/min, using nitrogen purge gas at 50 mL/min. […] Form HCl-H1 can be classified as non-hygroscopic acc. to Ph. Eur. criteria (section 5.11.). […] Water Vapour Sorption isotherm was acquired on a DVS-1 system from SMS. • Dissolution level of form HCl-H1 in Fed-State Simulated Intestinal Fluid [FeSSIF, pH 5.0] at 37° C. was determined to be approx. 1.50 mg/mL (after 15 min), approx. 4.16 mg/mL (after 60 min), and approx. 4.54 mg/mL (after 120 min), respectively (see example 17).

[4] = entire relative humidity range 0-98% rh
[5] = relative humidity range 0-90% rh
[6] = relative humidity range 0-80% rh

Row | Compound | Thermal stability (mp/dec) [1] | Dissolution levels in FeSSIF pH 5.0 ([2]; 5 min) | Dissolution levels in FeSSIF pH 5.0 ([2]; 15 min) | Dissolution levels in FeSSIF pH 5.0 ([2]; 60 min) | Dissolution levels in FeSSIF pH 5.0 ([2]; 120 min) | Dissolution behavior compared to prior-art form HCl-H1 [2] | Hygroscopicity classification acc. to Ph. Eur. criteria (section 5.11.) [3] | Water uptake levels (Water Vapour Sorption) [3, 4] | Tendency to undergo hydrate formation [3] | Water uptake levels (Water Vapour Sorption) [3, 5] | Water uptake levels (Water Vapour Sorption) [3, 6] | Thermally stable up to [1] | Water uptake levels (Water Vapour Sorption) ([3]; relative humidity range 10-90% rh)
1 | Cc1cc(S(C)(=O)=O)c(S(C)(=O)=O)cc1C(=O)NC(=N)N [Maleate-NF2, N-(4,5-bis-methanesulfonyl-2-methyl-benzoyl)-guanidine] | > 200 °C | 2.043 mg/mL | 4.30±0.02 mg/mL and 4.296 mg/mL | 6.35±0.02 mg/mL and 6.350 mg/mL | 6.35±0.02 mg/mL and 6.350 mg/mL | improved dissolution behavior | non-hygroscopic; also recorded: slightly hygroscopic | ≤ 0.3 wt % | no tendency to undergo hydrate formation | – | – | – | –
2 | Cc1cc(S(C)(=O)=O)c(S(C)(=O)=O)cc1C(=O)NC(=N)N [Phosphate-NF1, N-(4,5-bis-methanesulfonyl-2-methyl-benzoyl)-guanidine] | > 230 °C | 3.373 mg/mL | 5.92±0.02 mg/mL and 5.919 mg/mL | 6.35±0.02 mg/mL and 6.345 mg/mL | 6.35±0.02 mg/mL and 6.345 mg/mL | improved dissolution behavior | slightly hygroscopic | – | no tendency to undergo hydrate formation | ≤ 1.0 wt % | – | – | –
3 | Cc1cc(S(C)(=O)=O)c(S(C)(=O)=O)cc1C(=O)NC(=N)N [Sulfate-NF3, N-(4,5-bis-methanesulfonyl-2-methyl-benzoyl)-guanidine] | > 210 °C | 2.590 mg/mL | 3.70±0.02 mg/mL and 3.703 mg/mL | 4.65±0.02 mg/mL and 4.646 mg/mL | 4.70±0.02 mg/mL and 4.705 mg/mL | improved dissolution behavior | slightly hygroscopic | – | – | – | ≤ 0.5 wt % | – | –
4 | Cc1cc(S(C)(=O)=O)c(S(C)(=O)=O)cc1C(=O)NC(=N)N [Tosylate-NF1, N-(4,5-bis-methanesulfonyl-2-methyl-benzoyl)-guanidine] | – | 1.961 mg/mL | 4.85±0.02 mg/mL and 4.850 mg/mL | 5.28±0.02 mg/mL and 5.285 mg/mL | 2.86±0.02 mg/mL and 2.859 mg/mL | improved dissolution behavior | slightly hygroscopic | – | – | – | 1.0 wt % | ~180 °C | –
5 | Cc1cc(S(C)(=O)=O)c(S(C)(=O)=O)cc1C(=O)NC(=N)N [Succinate-NF1, N-(4,5-bis-methanesulfonyl-2-methyl-benzoyl)-guanidine] | > 200 °C | 1.105 mg/mL | 3.26±0.02 mg/mL and 3.260 mg/mL | 5.10±0.02 mg/mL and 5.104 mg/mL | 5.03±0.02 mg/mL and 5.032 mg/mL | improved dissolution behavior | non-hygroscopic | – | – | – | ≤ 0.2 wt % | – | –
6 | Cc1cc(S(C)(=O)=O)c(S(C)(=O)=O)cc1C(=O)NC(=N)N [Oxalate-NF1, N-(4,5-bis-methanesulfonyl-2-methyl-benzoyl)-guanidine] | > 260 °C | 1.329 mg/mL | 2.09±0.02 mg/mL and 2.095 mg/mL | 3.04±0.02 mg/mL and 3.042 mg/mL | 3.02±0.02 mg/mL and 3.025 mg/mL | improved dissolution behavior | non-hygroscopic | – | no tendency to undergo hydrate formation | – | – | – | –
7 | Cc1cc(S(C)(=O)=O)c(S(C)(=O)=O)cc1C(=O)NC(=N)N [Malonate-NF1, N-(4,5-bis-methanesulfonyl-2-methyl-benzoyl)-guanidine] | > 190 °C | 3.527 mg/mL | 5.340 mg/mL | 5.77±0.02 mg/mL and 5.770 mg/mL | 5.79±0.02 mg/mL and 5.790 mg/mL | improved dissolution behavior | slightly hygroscopic | – | – | – | ≤ 1.0 wt % | – | –
8 | Cc1cc(S(C)(=O)=O)c(S(C)(=O)=O)cc1C(=O)NC(=N)N [HBr-NF1, N-(4,5-bis-methanesulfonyl-2-methyl-benzoyl)-guanidine] | – | – | – | – | – | – | non-hygroscopic | – | – | – | – | – | 4.3-4.4 wt %
9 | Cc1cc(S(C)(=O)=O)c(S(C)(=O)=O)cc1C(=O)NC(=N)N [HCl-A1, N-(4,5-bis-methanesulfonyl-2-methyl-benzoyl)-guanidine] | – | 0.541 mg/mL | 0.87±0.02 mg/mL and 0.866 mg/mL | 2.53±0.02 mg/mL and 2.535 mg/mL | 2.76±0.02 mg/mL and 2.765 mg/mL | – | – | – | – | – | – | – | –
10 | Cc1cc(S(C)(=O)=O)c(S(C)(=O)=O)cc1C(=O)NC(=N)N (racemic) [Tartrate-NF1, N-(4,5-bis-methanesulfonyl-2-methyl-benzoyl)-guanidine] | – | 5.165 mg/mL | 5.17±0.02 mg/mL and 5.165 mg/mL | 5.17±0.02 mg/mL and 5.165 mg/mL | 5.17±0.02 mg/mL | improved dissolution behavior | slightly hygroscopic | – | – | ≤ 1.0 wt % | – | – | –
11 | Cc1cc(S(C)(=O)=O)c(S(C)(=O)=O)cc1C(=O)NC(=N)N [Fumarate-NF1, N-(4,5-bis-methanesulfonyl-2-methyl-benzoyl)-guanidine] | – | 2.606 mg/mL | 4.22±0.02 mg/mL and 4.222 mg/mL | 4.34±0.02 mg/mL and 4.337 mg/mL | 4.36±0.02 mg/mL and 4.361 mg/mL | improved dissolution behavior | slightly hygroscopic | – | – | – | – | – | –
12 | Cc1cc(S(C)(=O)=O)c(S(C)(=O)=O)cc1C(=O)NC(=N)N [Malate-NF1, N-(4,5-bis-methanesulfonyl-2-methyl-benzoyl)-guanidine] | – | 5.510 mg/mL | 5.51±0.02 mg/mL and 5.510 mg/mL | 5.51±0.02 mg/mL and 5.510 mg/mL | 4.27±0.02 mg/mL and 4.275 mg/mL | improved dissolution behavior | hygroscopic | – | – | 7.5 wt % | – | – | –
13 | Cc1cc(S(C)(=O)=O)c(S(C)(=O)=O)cc1C(=O)NC(=N)N [Maleate-NF1, N-(4,5-bis-methanesulfonyl-2-methyl-benzoyl)-guanidine] | > 170 °C | – | – | – | – | – | – | – | – | – | – | – | –
14 | Cc1cc(S(C)(=O)=O)c(S(C)(=O)=O)cc1C(=O)NC(=N)N.Cl.O [HCl-H1, N-(4,5-bismethanesulfonyl-2-methylbenzoyl)-guanidine hydrochloride hydrate, reference compound] | – | 0.494 mg/mL | – | – | – | – | non-hygroscopic | ≤ 0.2 wt % | – | – | – | – | –
